{"source": "patent US5470877A", "about": "“Uses of perillic acid methyl ester” (Wisconsin Alumni Research Foundation, priority 1994, dated 1995)", "key": {"NIH3T3 cells": {"system": "NIH3T3 cells", "assay": "NIH3T3 cell growth inhibition (FIG. 3)", "format": "cell-based, mouse", "conditions": "NIH3T3 (murine) cells", "description": "NIH3T3 (mouse embryo) cells were obtained from the American Type Culture Collection and were grown in Dulbecco's modified Eagle's medium supplemented with 10% calf serum. M600B immortalized human mammary epithelial cells (Stampfer, M.R., 1985, J. Tissue Culture Methods 9:107-115) were, obtained from Dr. Martha Stampfer and were grown in supplemented HCDB 170 medium (Hammond, et al. (1984) Proc. Natl. Acad. Sci U.S.A. 81:5435-5439), as described previously (Stampfer, et al. (1985) Proc. Natl. Acad. Sci U.S.A. 82:2394-2398; Eldridge, et al. (1989) Cancer Res. 49:4326-4331).\nAll cells were maintained in 100-mm dishes at 37° C. in a humidified 5% CO2 atmosphere. Viable cells were distinguished from nonviable cells by counting azure II/methylene blue-stained colonies 10 days after the cells were plated at a density of 100 cells per dish. Trypan blue exclusion was measured by incubating cells for 1 min with one drop of trypan blue per 10 ml of cells. Viable (colorless) and nonviable (blue) cells were then counted on a hemocytometer.\nWe examined the effect of several of the terpenes on certain types of cell growth. […] Additionally, growth of HT29 (human colon adenocarcinoma) cells was inhibited by 80% by 1 mM perillyl alcohol."}, "[1]": {"system": "DMBA-induced rat mammary carcinomas", "assay": "Regression of DMBA-induced mammary carcinomas, pair-feeding study", "format": "in vivo, Wistar-Furth rat", "conditions": "for Time to Regress (wks): primary carcinoma, footnote: Kaplan-Meier estimate of time when 25% regressed", "description": "We used Wistar-Furth female rats for in vivo studies. Wistar-Furth female rats were obtained from Harlan Sprague-Dawley, Inc., (Madison, Wis.). All rats, arriving at 43-48 days of age, were housed at four rats per cage in wire-bottom metal cages and all were maintained with a light/dark cycle of 12 hours. Rats were provided Teklad Lab blox chow and acidified water ad libitum.\nAfter one week of acclimation, the carcinogen DMBA was administered to the rats, which were 50-55 days old at this point. The DMBA was dissolved in a stock solution of 20 mg DMBA/ml sesame oil, heated and allowed to cool to room temperature before administration. DMBA (Eastman Kodak, Rochester, N.Y.) was given as a single gastric intubation of 50 mg DMBA/kg rat body weight.\nIn the pair-feeding study, a group of 70 mammals was treated with DMBA. Beginning four weeks post carcinogen administration, mammals were weighed and palpated weekly. Upon palpation of the first mammary carcinoma (diameter≥3 mm), mammals were randomly assigned to control or 2.5% (w/w) perillyl alcohol diet and pair-fed.\nPerillyl alcohol (>96% pure by GC analysis, Aldrich, Milwaukee, Wis.) and Teklad 4% mouse/rat diet meal were thoroughly mixed and stored at -20° C. Fresh diets were made every 7-10 days. All mammals were provided fresh diet daily to minimize evaporation of the monoterpenes. For pair-feeding, the quantity of diet consumed by the monoterpene-fed mammals was measured every 24 hours and the assigned partner was pair-fed accordingly.\nIn the pair-feeding study, all palpable mammary carcinomas were classified as either \"primary\" tumors (i.e, the first tumor(s) palpated with a minimum diameter of 3 mm) or \"secondary\" tumors (i.e. a palpable tumor arising after initial diet assignment). At diet assignment, some mammals had more than one primary tumor. All carcinogen-exposed mammals not bearing a first palpable tumor by week 15 post-carcinogen were removed from the experiment. Complete regression of a tumor was defined as non-palpability for a minimum of three consecutive weeks. All mammals in the pair-feeding study were followed for a minimum of 10 weeks post-diet assignment for tumor growth or regression at primary tumor sites and all other mammary glands. The rats were necropsied if moribund. Complete necropsies were performed on all rats at the termination of the study. Greater than 95% of tumors remaining at the autopsy date were diagnosed as mammary carcinomas based on gross and histopathological criteria."}, "[2]": {"assay": "Effect of dietary perillyl alcohol on serum cholesterol and lipids in rats", "format": "in vivo, Wistar-Furth rat", "description": "Twenty-one female, six-weeks-old, Wistar-Furth rats were divided into three different diet groups of seven rats each. One group was fed a control diet, one group was fed a 1% perillyl alcohol diet, and one group was fed a 2% perillyl alcohol diet. Rats from each diet group were matched into pair feeding groups.\nRats in the control group were pair fed against rats in the 2% POH diet group. Rats in the 1% POH diet group were allowed to eat as much as they wanted. After one month, rats in the 1% POH diet group were also pair fed against rats in 2% POH group. After two months of feeding, rats in all groups were allowed to eat as much as they wanted. The rats were allowed to eat as much as they wanted because the diurnal rhythm of HMGCoA reductase activity might be related to food intake.\nThe rats' body weights were measured twice a week. Perillyl alcohol diets were made once a week and replaced daily.\n[…] About 1 ml blood was taken from each rat each time and collected in heparin (SIGMA) coated tube. For CoQ analysis, 0.5 ml blood was added to the CoQ6 standard. For cholesterol analysis the blood were spun down at 3,000 rpm for 10 minutes and the plasma were taken. By three months, all rats were killed.\nTotal cholesterol, HDL cholesterol and triglyceride levels in the rats' plasma were measured using diagnostic kits from SIGMA according to manufacturer's instructions. LDL cholesterol levels were calculated by Friedewald's equation. […]"}, "[3]": {"assay": "Chronic dietary toxicity in rats"}, "[4]": {"conditions": "10% limonene diet or 2.5% POH diet"}}}
{"smiles": "C=C(C)[C@@H]1CC=C(CO)CC1", "note": "[perillyl alcohol]", "values": [{"measurement": "inhibition of cell growth", "setting": "NIH3T3 cells", "value": "significantly inhibited cell growth in a dose-dependent manner"}, {"measurement": "Primary carcinoma regression (%)", "setting": "[1]; [4]", "value": 81, "unit": "%"}, {"measurement": "Secondary carcinoma regression (%)", "setting": "[1]; [4]", "value": 0, "unit": "%"}, {"measurement": "Secondary carcinoma regression (tumors regressed / tumors)", "setting": "[1]; [4]", "value": "01/1"}, {"measurement": "Secondary carcinomas/rat", "setting": "[1]; [4]", "value": 0.04}, {"measurement": "development of secondary carcinomas", "setting": "[1]; after initial diet assignment", "value": "limited the development of secondary carcinomas"}, {"measurement": "Time to Regress (wks)", "setting": "[1]", "value": 3.6, "unit": "wks"}, {"measurement": "Time to Regress (wks)", "setting": "[1]; listed as POH", "value": "3.6 ± 0.3", "unit": "wks"}, {"measurement": "amount of perillyl alcohol needed relative to limonene", "setting": "[1]; to achieve these regression results", "value": 25, "unit": "%"}, {"measurement": "Body Weight", "setting": "[2]; 1% POH diet", "value": "207 ± 3", "unit": "g"}, {"measurement": "Heart Weight", "setting": "[2]; 1% POH diet", "value": "0.57 ± 0.05", "unit": "g"}, {"measurement": "Liver Weight", "setting": "[2]; 1% POH diet", "value": "6.1 ± 0.3", "unit": "g"}, {"measurement": "HDL Cholesterol", "setting": "[2]; 1% POH diet, Kill", "value": "37.6 ± 3.8", "unit": "mg/dL"}, {"measurement": "Total Cholesterol", "setting": "[2]; 1% POH diet, Kill", "value": "47.7 ± 4.3", "unit": "mg/dL"}, {"measurement": "Triglyceride", "setting": "[2]; 1% POH diet, Kill", "value": "29.8 ± 8.9", "unit": "mg/dL"}, {"measurement": "LDL Cholesterol", "setting": "[2]; 1% POH diet, Kill, Friedewald's equation", "value": "4.1 ± 2.4", "unit": "mg/dL"}, {"measurement": "HDL Cholesterol", "setting": "[2]; 1% POH diet, WK3", "value": "31.7 ± 2.3", "unit": "mg/dL"}, {"measurement": "Total Cholesterol", "setting": "[2]; 1% POH diet, WK3", "value": "45.9 ± 4.2", "unit": "mg/dL"}, {"measurement": "Triglyceride", "setting": "[2]; 1% POH diet, WK3", "value": "20.8 ± 5.2", "unit": "mg/dL"}, {"measurement": "LDL Cholesterol", "setting": "[2]; 1% POH diet, WK3, Friedewald's equation", "value": "10.1 ± 3.1", "unit": "mg/dL"}, {"measurement": "HDL Cholesterol", "setting": "[2]; 1% POH diet, WK6", "value": "33.1 ± 2.2", "unit": "mg/dL"}, {"measurement": "Total Cholesterol", "setting": "[2]; 1% POH diet, WK6", "value": "41.0 ± 3.0", "unit": "mg/dL"}, {"measurement": "Triglyceride", "setting": "[2]; 1% POH diet, WK6", "value": "29.5 ± 5.7", "unit": "mg/dL"}, {"measurement": "LDL Cholesterol", "setting": "[2]; 1% POH diet, WK6, Friedewald's equation", "value": "2.0 ± 1.4", "unit": "mg/dL"}, {"measurement": "HDL Cholesterol", "setting": "[2]; 1% POH diet, WK9", "value": "31.5 ± 2.6", "unit": "mg/dL"}, {"measurement": "Total Cholesterol", "setting": "[2]; 1% POH diet, WK9", "value": "43.2 ± 4.9", "unit": "mg/dL"}, {"measurement": "Triglyceride", "setting": "[2]; 1% POH diet, WK9", "value": "28.7 ± 5.7", "unit": "mg/dL"}, {"measurement": "LDL Cholesterol", "setting": "[2]; 1% POH diet, WK9, Friedewald's equation", "value": "6.0 ± 4.0", "unit": "mg/dL"}, {"measurement": "Body Weight", "setting": "[2]; 2% POH diet", "value": "198 ± 6", "unit": "g"}, {"measurement": "Heart Weight", "setting": "[2]; 2% POH diet", "value": "0.57 ± 0.05", "unit": "g"}, {"measurement": "Liver Weight", "setting": "[2]; 2% POH diet", "value": "6.2 ± 0.5", "unit": "g"}, {"measurement": "HDL Cholesterol", "setting": "[2]; 2% POH diet, Kill", "value": "39.8 ± 4.0", "unit": "mg/dL"}, {"measurement": "Total Cholesterol", "setting": "[2]; 2% POH diet, Kill", "value": "52.8 ± 6.8", "unit": "mg/dL"}, {"measurement": "Triglyceride", "setting": "[2]; 2% POH diet, Kill", "value": "33.8 ± 14.9", "unit": "mg/dL"}, {"measurement": "LDL Cholesterol", "setting": "[2]; 2% POH diet, Kill, Friedewald's equation", "value": "6.2 ± 1.8", "unit": "mg/dL"}, {"measurement": "HDL Cholesterol", "setting": "[2]; 2% POH diet, WK3", "value": "31.4 ± 1.6", "unit": "mg/dL"}, {"measurement": "Total Cholesterol", "setting": "[2]; 2% POH diet, WK3", "value": "44.2 ± 3.7", "unit": "mg/dL"}, {"measurement": "Triglyceride", "setting": "[2]; 2% POH diet, WK3", "value": "17.2 ± 5.3", "unit": "mg/dL"}, {"measurement": "LDL Cholesterol", "setting": "[2]; 2% POH diet, WK3, Friedewald's equation", "value": "9.4 ± 3.0", "unit": "mg/dL"}, {"measurement": "HDL Cholesterol", "setting": "[2]; 2% POH diet, WK6", "value": "33.5 ± 3.6", "unit": "mg/dL"}, {"measurement": "Total Cholesterol", "setting": "[2]; 2% POH diet, WK6", "value": "41.2 ± 5.0", "unit": "mg/dL"}, {"measurement": "Triglyceride", "setting": "[2]; 2% POH diet, WK6", "value": "21.1 ± 5.7", "unit": "mg/dL"}, {"measurement": "LDL Cholesterol", "setting": "[2]; 2% POH diet, WK6, Friedewald's equation", "value": "3.4 ± 2.2", "unit": "mg/dL"}, {"measurement": "HDL Cholesterol", "setting": "[2]; 2% POH diet, WK9", "value": "30.7 ± 2.9", "unit": "mg/dL"}, {"measurement": "Total Cholesterol", "setting": "[2]; 2% POH diet, WK9", "value": "40.7 ± 3.3", "unit": "mg/dL"}, {"measurement": "Triglyceride", "setting": "[2]; 2% POH diet, WK9", "value": "18.4 ± 2.9", "unit": "mg/dL"}, {"measurement": "LDL Cholesterol", "setting": "[2]; 2% POH diet, WK9, Friedewald's equation", "value": "6.4 ± 1.2", "unit": "mg/dL"}, {"measurement": "LDL level versus HDL level", "setting": "[2]; after 6 weeks of treatment", "value": "LDL level is reduced much more than the HDL level"}, {"measurement": "Triglyceride levels", "setting": "[2]; after 6 weeks of treatment", "value": "dramatically reduced"}, {"measurement": "total cholesterol level", "setting": "[2]; after 6 weeks of treatment", "value": "reduced"}, {"measurement": "weight change", "setting": "[3]; 0.5% POH diet, chronic", "value": "very small weight loss followed by weight gain"}, {"measurement": "weight change", "setting": "[3]; 1.0% POH diet, chronic", "value": "very small weight loss followed by weight gain"}, {"measurement": "tolerability", "setting": "[3]; 2.0% POH diet, chronic", "value": "tolerated with weight loss followed by weight gain"}, {"measurement": "tolerability", "setting": "[3]; 2.5% POH diet, chronic", "value": "tolerated with weight loss observed"}, {"measurement": "death", "setting": "[3]; 3.0% POH diet, chronic", "value": "2/5"}, {"measurement": "maximum dose tolerated (% diet)", "setting": "[3]; dietary, data not shown", "value": 2.5, "unit": "%"}, {"measurement": "Toxicity", "setting": "[3]; perillyl alcohol-fed rats", "value": "limited to weight loss"}, {"measurement": "body weight versus controls", "setting": "[3]; perillyl alcohol-fed, FIG. 8", "value": "did not achieve weights similar to controls"}]}
